pIC50, pKd, pKi: −log10 of the molar value. Each block holds one compound with its values, some of them ahead of it.
Assays:
[1] = biological target: T1, Lysine-specific histone demethylase 1A (Homo sapiens, UniProt O60341)
[2] = biological target: T2, MAO-B (Homo sapiens, UniProt P27338); experiment: Inhibition of MAO-B (unknown origin) at 100 uM relative to control
T2 sequence (P27338 whole entry): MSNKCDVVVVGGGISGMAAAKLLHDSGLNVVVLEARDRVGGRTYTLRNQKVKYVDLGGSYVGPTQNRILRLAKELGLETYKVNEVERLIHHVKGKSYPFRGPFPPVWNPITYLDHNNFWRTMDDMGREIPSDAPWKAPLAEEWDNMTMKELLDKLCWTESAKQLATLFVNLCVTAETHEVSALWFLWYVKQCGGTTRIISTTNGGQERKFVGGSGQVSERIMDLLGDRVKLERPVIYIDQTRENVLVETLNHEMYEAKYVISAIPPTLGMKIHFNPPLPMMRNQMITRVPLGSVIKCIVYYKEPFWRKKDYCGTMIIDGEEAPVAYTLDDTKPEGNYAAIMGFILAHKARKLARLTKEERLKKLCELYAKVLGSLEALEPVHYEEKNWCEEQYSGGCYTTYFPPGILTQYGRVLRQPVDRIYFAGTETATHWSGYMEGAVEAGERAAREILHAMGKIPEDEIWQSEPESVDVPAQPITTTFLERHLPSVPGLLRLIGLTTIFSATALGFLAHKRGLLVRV

[3] = biological target: T3, MAO-A (Homo sapiens, UniProt P21397); experiment: Inhibition of MAO-A (unknown origin) at 100 uM relative to control
T3 sequence (P21397 whole entry): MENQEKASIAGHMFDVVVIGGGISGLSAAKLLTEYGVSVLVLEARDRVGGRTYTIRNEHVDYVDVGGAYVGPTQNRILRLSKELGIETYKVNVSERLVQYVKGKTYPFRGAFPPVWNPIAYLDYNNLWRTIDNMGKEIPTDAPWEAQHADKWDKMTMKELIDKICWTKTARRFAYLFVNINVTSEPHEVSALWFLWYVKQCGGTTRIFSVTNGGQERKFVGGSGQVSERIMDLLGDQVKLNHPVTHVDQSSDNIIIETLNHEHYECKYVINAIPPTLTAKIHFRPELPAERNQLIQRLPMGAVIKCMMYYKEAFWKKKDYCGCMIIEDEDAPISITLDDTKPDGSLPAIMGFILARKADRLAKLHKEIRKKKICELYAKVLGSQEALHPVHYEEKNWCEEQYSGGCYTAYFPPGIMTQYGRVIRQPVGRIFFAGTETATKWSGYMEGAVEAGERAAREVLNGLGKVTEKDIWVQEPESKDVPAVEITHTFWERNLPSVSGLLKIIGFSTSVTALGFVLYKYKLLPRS

[4] = biological target: T1, Lysine-specific histone demethylase 1A; remark: listed apart in the source
[5] = biological target: Lysine-specific demethylase 4A (Homo sapiens) (UniProt O75164); experiment: Inhibition of recombinant KDM4A (unknown origin) assessed as residual activity using H3K9me3 peptide as substrate incubated for 60 mins by fluorescence based assay relative to control
[6] = tested on: LC4-1; experiment: cells; conditions: Homo sapiens
[7] = tested on: MOLT-4; experiment: cells; conditions: Homo sapiens
[8] = tested on: KE-37; experiment: cells; conditions: Homo sapiens
[9] = tested on: HAL-01; experiment: cells; conditions: Homo sapiens
[10] = tested on: SUP-B15; experiment: cells; conditions: Homo sapiens
[11] = tested on: P30-OHK; experiment: cells; conditions: Homo sapiens
[12] = biological target: T4, Amine oxidase [flavin-containing] A (Homo sapiens, UniProt P21397); experiment: Inhibition of MAO-A (unknown origin) by luminometry
T4 sequence (P21397 whole entry): T3 sequence (P21397 whole entry)

[13] = biological target: Lysine-specific demethylase 6B (Homo sapiens, UniProt O15054); experiment: Binding affinity to KDM6B (unknown origin) assessed as inhibition constant
[14] = biological target: T1, Lysine-specific histone demethylase 1A; experiment: Inhibition of KDM1A (unknown origin) by fluorescence based assay
[15] = biological target: T5, Amine oxidase [flavin-containing] B (Homo sapiens, UniProt P27338)
T5 sequence (P27338 whole entry): T2 sequence (P27338 whole entry)

[16] = biological target: T2, MAO-B; experiment: Inhibition of recombinant MAO-B (unknown origin) using luciferin substrate at 10 uM preincubated for 15 mins followed by substrate addition measured after 1 hr by luciferase based assay relative to control; conditions: probe luciferin substrate, time 75 min
[17] = biological target: T3, MAO-A; experiment: Inhibition of recombinant MAO-A (unknown origin) using luciferin substrate at 10 uM preincubated for 15 mins followed by substrate addition measured after 1 hr by luciferase based assay relative to control; conditions: probe luciferin substrate, time 75 min
[18] = biological target: T6, Lysine-specific demethylase 4A (Homo sapiens, UniProt O75164); experiment: Inhibition of recombinant human KDM4A incubated for 30 mins by fluorescence based assay
T6 sequence (O75164 whole entry): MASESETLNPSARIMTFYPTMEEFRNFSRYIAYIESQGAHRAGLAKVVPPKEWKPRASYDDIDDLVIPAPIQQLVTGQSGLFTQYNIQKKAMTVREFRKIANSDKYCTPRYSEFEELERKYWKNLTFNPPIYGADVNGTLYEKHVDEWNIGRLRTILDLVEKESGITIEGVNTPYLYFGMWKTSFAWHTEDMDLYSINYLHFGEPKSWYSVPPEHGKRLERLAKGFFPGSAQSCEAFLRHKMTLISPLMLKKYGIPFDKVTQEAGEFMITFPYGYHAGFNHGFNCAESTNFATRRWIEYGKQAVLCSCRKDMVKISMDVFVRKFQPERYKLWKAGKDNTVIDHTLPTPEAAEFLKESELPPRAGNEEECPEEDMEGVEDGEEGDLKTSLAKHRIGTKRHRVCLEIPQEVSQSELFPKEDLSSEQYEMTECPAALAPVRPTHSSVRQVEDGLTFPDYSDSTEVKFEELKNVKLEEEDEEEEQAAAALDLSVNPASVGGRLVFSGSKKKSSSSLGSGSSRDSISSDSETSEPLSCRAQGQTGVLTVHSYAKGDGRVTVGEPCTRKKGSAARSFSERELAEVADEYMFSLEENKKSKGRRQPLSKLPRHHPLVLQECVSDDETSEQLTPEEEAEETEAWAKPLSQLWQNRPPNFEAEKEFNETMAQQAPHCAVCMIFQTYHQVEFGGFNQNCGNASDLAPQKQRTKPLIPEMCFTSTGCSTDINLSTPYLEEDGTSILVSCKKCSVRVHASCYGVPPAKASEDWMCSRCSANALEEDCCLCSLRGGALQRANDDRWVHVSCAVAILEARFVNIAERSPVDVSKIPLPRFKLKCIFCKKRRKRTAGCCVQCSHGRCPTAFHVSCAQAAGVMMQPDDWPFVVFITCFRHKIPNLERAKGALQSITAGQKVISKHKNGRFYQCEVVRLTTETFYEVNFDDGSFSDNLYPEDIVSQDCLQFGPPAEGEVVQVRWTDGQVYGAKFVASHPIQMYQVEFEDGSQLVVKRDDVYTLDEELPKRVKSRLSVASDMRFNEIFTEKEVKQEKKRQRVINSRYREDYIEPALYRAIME

[19] = biological target: Probable JmjC domain-containing histone demethylation protein 2C (Homo sapiens, UniProt Q15652); experiment: Binding affinity to CM7 sensor chip immobilized partial-length JMJD1C (2274 to 2498 residues) (unknown origin) expressed in Escherichia coli assessed as dissociation constant incubated for 60 secs by SPR analysis
Sequence of Probable JmjC domain-containing histone demethylation protein 2C (Q15652 whole entry, the tested form may be a part): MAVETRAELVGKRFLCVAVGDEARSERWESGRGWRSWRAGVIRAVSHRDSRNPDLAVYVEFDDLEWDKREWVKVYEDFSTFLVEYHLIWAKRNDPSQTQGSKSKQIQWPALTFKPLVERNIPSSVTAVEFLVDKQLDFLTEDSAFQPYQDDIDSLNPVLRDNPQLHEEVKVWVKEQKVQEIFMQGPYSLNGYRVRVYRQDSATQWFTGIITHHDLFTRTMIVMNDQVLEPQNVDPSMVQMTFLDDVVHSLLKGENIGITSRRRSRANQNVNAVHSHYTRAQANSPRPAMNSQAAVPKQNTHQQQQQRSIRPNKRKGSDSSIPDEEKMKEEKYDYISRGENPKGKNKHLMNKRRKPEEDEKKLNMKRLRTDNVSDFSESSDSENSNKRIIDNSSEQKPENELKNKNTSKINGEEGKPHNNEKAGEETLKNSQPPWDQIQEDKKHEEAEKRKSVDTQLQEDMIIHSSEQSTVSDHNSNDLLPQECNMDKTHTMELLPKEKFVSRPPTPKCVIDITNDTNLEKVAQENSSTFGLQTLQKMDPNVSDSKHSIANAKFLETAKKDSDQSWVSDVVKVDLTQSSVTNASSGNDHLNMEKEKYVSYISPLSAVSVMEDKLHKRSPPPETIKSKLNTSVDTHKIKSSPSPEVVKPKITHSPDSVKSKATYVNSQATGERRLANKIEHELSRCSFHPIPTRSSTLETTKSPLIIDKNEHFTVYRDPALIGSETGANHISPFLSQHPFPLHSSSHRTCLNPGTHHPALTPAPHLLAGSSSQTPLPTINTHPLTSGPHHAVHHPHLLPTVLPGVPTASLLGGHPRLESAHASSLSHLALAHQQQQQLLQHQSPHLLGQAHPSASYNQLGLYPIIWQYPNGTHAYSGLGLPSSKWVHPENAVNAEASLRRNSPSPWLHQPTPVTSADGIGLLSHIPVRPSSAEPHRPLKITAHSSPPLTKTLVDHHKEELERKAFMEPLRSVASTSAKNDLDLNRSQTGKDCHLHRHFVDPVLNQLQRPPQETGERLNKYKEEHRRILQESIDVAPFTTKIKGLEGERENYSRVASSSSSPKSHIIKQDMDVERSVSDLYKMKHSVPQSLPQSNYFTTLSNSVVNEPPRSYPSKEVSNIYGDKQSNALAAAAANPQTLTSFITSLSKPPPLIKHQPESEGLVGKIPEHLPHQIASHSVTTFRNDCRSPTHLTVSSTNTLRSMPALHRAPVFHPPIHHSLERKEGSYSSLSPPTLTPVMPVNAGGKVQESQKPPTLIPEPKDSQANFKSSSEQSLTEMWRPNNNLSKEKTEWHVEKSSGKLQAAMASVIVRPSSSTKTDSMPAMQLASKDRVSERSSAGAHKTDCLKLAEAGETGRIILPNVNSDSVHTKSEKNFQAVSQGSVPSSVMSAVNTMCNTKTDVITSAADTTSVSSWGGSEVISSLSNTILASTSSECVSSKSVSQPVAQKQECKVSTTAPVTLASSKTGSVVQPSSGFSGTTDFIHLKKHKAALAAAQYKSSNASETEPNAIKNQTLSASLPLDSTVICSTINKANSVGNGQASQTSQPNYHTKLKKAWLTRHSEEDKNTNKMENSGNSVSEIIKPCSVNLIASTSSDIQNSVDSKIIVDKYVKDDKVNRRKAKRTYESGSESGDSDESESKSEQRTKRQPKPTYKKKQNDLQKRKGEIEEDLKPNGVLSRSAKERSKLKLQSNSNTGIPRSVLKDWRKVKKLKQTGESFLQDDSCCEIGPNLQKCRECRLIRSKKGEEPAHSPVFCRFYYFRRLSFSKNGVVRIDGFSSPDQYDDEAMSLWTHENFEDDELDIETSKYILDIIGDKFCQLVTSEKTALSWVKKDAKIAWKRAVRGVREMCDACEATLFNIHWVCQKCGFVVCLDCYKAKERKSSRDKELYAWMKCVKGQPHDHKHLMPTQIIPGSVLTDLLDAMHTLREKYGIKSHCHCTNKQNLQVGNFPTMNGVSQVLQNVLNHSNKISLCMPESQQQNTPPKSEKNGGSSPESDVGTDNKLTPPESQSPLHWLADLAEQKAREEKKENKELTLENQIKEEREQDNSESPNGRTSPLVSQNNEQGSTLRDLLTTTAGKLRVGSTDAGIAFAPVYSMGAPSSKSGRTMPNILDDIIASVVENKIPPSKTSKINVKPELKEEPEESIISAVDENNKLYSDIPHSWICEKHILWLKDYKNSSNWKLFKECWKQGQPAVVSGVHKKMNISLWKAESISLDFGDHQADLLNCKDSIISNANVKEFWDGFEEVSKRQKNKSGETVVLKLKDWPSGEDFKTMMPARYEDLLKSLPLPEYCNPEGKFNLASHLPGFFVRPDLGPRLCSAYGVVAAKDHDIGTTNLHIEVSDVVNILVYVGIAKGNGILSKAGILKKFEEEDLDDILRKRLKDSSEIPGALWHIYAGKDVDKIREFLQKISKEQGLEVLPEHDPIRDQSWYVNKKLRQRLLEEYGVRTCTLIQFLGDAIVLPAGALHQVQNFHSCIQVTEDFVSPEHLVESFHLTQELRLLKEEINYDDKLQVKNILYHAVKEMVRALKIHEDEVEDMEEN

[20] = biological target: Lysine-specific demethylase 3B (Homo sapiens, UniProt Q7LBC6); experiment: Binding affinity to CM7 sensor chip immobilized full-length KDM3B (unknown origin) expressed in Sf9 insect cells assessed as dissociation constant incubated for 60 secs by SPR analysis
Sequence of Lysine-specific demethylase 3B (Q7LBC6 whole entry): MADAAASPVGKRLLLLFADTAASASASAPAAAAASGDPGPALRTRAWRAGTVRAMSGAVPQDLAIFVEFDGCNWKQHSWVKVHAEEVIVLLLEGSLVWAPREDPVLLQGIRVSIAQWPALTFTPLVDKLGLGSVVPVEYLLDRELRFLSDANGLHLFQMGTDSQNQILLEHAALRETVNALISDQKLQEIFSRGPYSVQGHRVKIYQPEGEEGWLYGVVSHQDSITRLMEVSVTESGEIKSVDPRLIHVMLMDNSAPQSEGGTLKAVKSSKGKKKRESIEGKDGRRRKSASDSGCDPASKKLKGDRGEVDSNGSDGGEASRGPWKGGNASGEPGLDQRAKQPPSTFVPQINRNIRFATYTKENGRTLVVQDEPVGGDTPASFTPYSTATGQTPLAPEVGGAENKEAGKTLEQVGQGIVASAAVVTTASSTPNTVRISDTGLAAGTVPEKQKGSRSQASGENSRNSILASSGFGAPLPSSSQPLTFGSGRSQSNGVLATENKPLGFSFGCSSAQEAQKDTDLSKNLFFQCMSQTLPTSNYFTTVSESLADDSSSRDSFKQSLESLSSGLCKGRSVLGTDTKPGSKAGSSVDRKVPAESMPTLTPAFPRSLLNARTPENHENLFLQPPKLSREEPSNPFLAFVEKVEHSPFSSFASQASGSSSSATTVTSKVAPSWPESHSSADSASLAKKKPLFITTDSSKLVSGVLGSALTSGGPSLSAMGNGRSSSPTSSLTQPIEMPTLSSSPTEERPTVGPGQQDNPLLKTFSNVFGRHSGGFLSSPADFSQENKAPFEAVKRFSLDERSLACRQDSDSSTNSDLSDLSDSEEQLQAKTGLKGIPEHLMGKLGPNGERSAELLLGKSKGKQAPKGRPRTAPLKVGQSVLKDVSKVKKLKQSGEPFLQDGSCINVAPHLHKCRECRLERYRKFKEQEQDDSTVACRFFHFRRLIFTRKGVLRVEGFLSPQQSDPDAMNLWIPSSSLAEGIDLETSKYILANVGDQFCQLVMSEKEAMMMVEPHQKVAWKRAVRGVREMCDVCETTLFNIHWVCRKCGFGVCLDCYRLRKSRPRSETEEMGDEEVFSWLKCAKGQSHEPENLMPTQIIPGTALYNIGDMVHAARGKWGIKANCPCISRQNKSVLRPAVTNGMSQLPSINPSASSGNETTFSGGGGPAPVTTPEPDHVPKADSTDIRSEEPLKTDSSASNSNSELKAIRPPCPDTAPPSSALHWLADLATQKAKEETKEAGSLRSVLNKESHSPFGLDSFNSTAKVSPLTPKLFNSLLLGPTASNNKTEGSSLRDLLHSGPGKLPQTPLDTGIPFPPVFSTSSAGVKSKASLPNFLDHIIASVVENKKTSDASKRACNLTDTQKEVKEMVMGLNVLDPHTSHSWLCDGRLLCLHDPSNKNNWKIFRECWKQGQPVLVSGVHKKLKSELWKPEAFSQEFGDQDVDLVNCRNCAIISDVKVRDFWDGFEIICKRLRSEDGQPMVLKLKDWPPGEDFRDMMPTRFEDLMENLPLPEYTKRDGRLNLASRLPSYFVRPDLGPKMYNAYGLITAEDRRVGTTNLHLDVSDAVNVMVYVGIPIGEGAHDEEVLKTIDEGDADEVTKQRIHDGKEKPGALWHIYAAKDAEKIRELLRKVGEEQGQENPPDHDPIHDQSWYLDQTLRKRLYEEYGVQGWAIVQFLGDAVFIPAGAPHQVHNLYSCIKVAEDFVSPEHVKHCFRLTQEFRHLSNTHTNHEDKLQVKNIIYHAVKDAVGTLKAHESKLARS

pIC50 [1]: 7.29
inhibition at 100 µM [2]: 8%
inhibition at 100 µM [3]: 2%
SMILES: NC1CC1c1ccc(NC(=O)c2ccc(-c3ccccc3)cc2)cc1 (stereo not drawn)

pKi [13]: 5.13
SMILES: O=c1c(-c2ccc(O)cc2)coc2c([C@@H]3O[C@H](CO[C@@H]4OC[C@@H](O)[C@H](O)[C@H]4O)[C@@H](O)[C@H](O)[C@H]3O)c(O)ccc12

pIC50 [15]: < 3.70
SMILES: O=C(c1ccc(OCCN2CCCCC2)cc1)c1c(-c2ccc(O)cc2)sc2cc(O)ccc12 [RALOXIFENE]

pIC50 [18]: 4.61
SMILES: O=C(O)c1cc(O)c(=O)c2c(O)c(O)cc(-c3ccccc3)c2c1

Second part, the compound before the results:

SMILES: CSCC[C@H](NC(=O)[C@@H](NC(=O)[C@H](CCCNC(=N)N)NC(=O)[C@H](C)N)[C@@H](C)O)C(=O)N[C@@H](CCC(N)=O)C(=O)N[C@H](C(=O)N[C@@H](C)C(=O)N[C@@H](CCCNC(=N)N)C(=O)N[C@@H](CCCCN)C(=O)N[C@@H](CO)C(=O)N[C@H](C(=O)O)[C@@H](C)O)[C@@H](C)O
pKd [4]: 3.85

SMILES: CC(C)(C)OC(=O)NCc1cc2ccccc2[te]1
Activity [5]: 1.79%

SMILES: CC(C)(C)OC(=O)N1CCN(C(=S)SCC(=O)Nc2ccc(C(=O)/C=C/c3ccccc3F)cc2)CC1
pIC50 [6]: 5.56
pIC50 [7]: 6.06
pIC50 [8]: 5.44
pIC50 [9]: 5.96
pIC50 [10]: 5.73
pIC50 [11]: 5.41
pIC50 [12]: 4.70

SMILES: O=C(O)[C@H](O)Cc1ccc(O)c(O)c1
pKi [13]: 5.15

SMILES: O=C(/C=C/c1ccc(O)c2c1[C@H](C(=O)OC(Cc1ccc(O)c(O)c1)C(=O)O)[C@@H](c1ccc(O)c(O)c1)O2)O[C@H](Cc1ccc(O)c(O)c1)C(=O)O (stereo partly drawn)
pIC50 [14]: 6.96

SMILES: Oc1ccc(CC2NCCc3cc(O)c(O)cc32)cc1 (stereo not drawn) [HIGENAMINE]
inhibition at 1 h, 10 µM [16]: < 15%
inhibition at 1 h, 10 µM [17]: < 15%

SMILES: CC(=O)Nc1ccc(S(=O)(=O)N[C@H]2CO[C@H]3[C@@H]2OC[C@@H]3Nc2nccc(-c3cccc(F)c3)n2)cc1
pKd [19]: 4.57
pKd [20]: 4.79

SMILES: CC(=O)Nc1ccc(S(=O)(=O)N[C@H]2CO[C@H]3[C@@H]2OC[C@@H]3Nc2nccc(-c3cccc(C(C)(C)C)c3)n2)cc1
pKd [19]: 5.09
pKd [20]: 5.11

Source: ChEMBL document CHEMBL5126529, “Drug discovery of histone lysine demethylases (KDMs) inhibitors (progress from 2018 to present)” (Eur J Med Chem, 2022)
